Read-outs that look alike come from different tables or passages of the source. Where a SMILES comes first, the peptide text is derived from it. Where no end group is shown, it is not given here.
Legend:
[1] = molecular target: T1, KIX (Mus musculus, UniProt P45481); assay: KIX binding by isothermal titration calorimetry (ITC); details: 30 °C; for − TΔS: entropy term upon KIX binding, pH 7.0, ΔS=(ΔH-ΔG)/T, mean ± standard error of triplicate or more; for N (stoichiometry of binding): pH 7.0, mean ± standard error of triplicate or more
T1 construct: The DNA fragment of KIX (residues 586–672 of mouse CBP); 6xHis-tag with thrombin cleavage site (N); made in house; host or cells: E. coli BL21(DE3)pLysS
T1 sequence (P45481 586-672): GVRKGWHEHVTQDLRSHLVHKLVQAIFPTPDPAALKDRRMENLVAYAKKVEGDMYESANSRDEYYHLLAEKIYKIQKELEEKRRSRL
Experimental: For the expression of MLL TAD, E. coli BL21(DE3) competent cells were transformed with the plasmid and cultivated at 37 °C in 2 × YT liquid medium supplemented with ampicillin. When an optical density at 600 nm (OD600) of the cell culture reached 0.7–0.8, 1 mM isopropyl β-D-1-thiogalactopyranoside was added to induce protein expression. After 4 h of cultivation, the cells were harvested by centrifugation. The E. coli cell pellet was suspended with buffer HP (50 mM sodium phosphate [pH 7.4], 300 mM NaCl, 10 mM imidazole, and 6 M guanidine hydrochloride). The sonicated lysate was centrifuged at 4 °C, and the supernatant was filtered using a membrane filter and applied to a gravity column (50 mL) containing 5 mL of nickel-nitrilotriacetic acid (Ni–NTA) resin (Qiagen, Hilden, Germany). The column was washed with buffer HP and buffer AP (50 mM sodium phosphate [pH 7.4], 300 mM NaCl, and 10 mM imidazole) to remove impurities. To elute His-tag–GB1–MLL TAD for ITC and SPR measurements, 40 mL of buffer EP (50 mM sodium phosphate [pH 7.4], 300 mM NaCl, and 250 mM imidazole) was added to the column. […] Thus, His-tag–GB1–MLL TAD was used in the ITC measurements, with the exception of the four mutants (I2849L, D2851L, K2855R, and T2857I). To obtain the MLL TAD peptide without His-tag–GB1 for CD measurements, we washed the column, to which the His-tag–GB1–MLL TAD was attached, with buffer TP (50 mM sodium phosphate [pH 7.4] and 300 mM NaCl), added 150 units of thrombin to the column for digestion of the His-tag–GB1, and eluted the MLL TAD peptide with buffer TP. After Ni–NTA column purification, anion exchange chromatography was performed to further purify the aforementioned four mutants without His-tag–GB1 using the AKTAprime plus chromatography system (Cytiva, Marlborough, MA, USA; 10 mM sodium phosphate [pH 6.0] and 0–1 M NaCl). Due to the fact that the CD spectra of the four mutants were unchanged before and after the anion exchange chromatography, we omitted this procedure for other mutants.
Expression and purification of the KIX protein was performed in the same way as MLL, except that E. coli BL21(DE3)pLysS competent cells and 2 × YT liquid medium with ampicillin and chloramphenicol were used. After Ni–NTA column purification, gel filtration chromatography was performed using a Superdex 200 pg column (Cytiva) and the ITC buffer (20 mM Tris–acetate [pH 7.0] and 50 mM NaCl).
ITC measurements were performed using MicroCal iTC200 (Malvern Panalytical Ltd., Malvern, United Kingdom) at 30 °C. Samples were sufficiently dialyzed with the ITC buffer before measurements. The 600 μM MLL solution was titrated into the cell containing 45 µM KIX. The data were analyzed using the Origin 7 software (OriginLab Corp., Northampton, MA, USA; https://www.originlab.com) to obtain the Kd (M), ΔH (kcal/mol), and stoichiometry of binding, N. The ΔG (kcal/mol) and ΔS (kcal/mol/K) were obtained as follows:2 ΔG=-RTln1/Kd 3 ΔS=ΔH-ΔG/T where R is the gas constant, and T is the temperature.

[2] = tested on: KIX–MLL interaction; details: cited from earlier work
Experimental: Previous studies have reported several inhibitors that bind the MLL site of KIX, including isoxazolidine derivatives, which are small molecule compounds that mimic the function of the TADs of transcriptional activators, and natural products such as sekikaic acid and lobaric acid[21],[22]. […] However, the EC50 and IC50 values of these small molecule inhibitors are 10- to 100-fold larger than the Kd for the KIX–MLL interaction (2.02 ± 0.04 μM).

[3] = inhibition of the KIX–MLL interaction

Molecule	− TΔS [1] [kcal/mol]	further results
T2857L: T2857L mutant of the MLL TAD peptide ({His6-GB1}-GNILPSDIMDFVLKNLPSMQALGESPESY)	2.6 ± 0.1	–
T2857F: T2857F mutant of the MLL TAD peptide (GNILPSDIMDFVLKNFPSMQALGESPESY; left off: His6, N-terminal, cleaved | GB1 (B1 domain of Streptococcal protein G), N-terminal, cleaved)	3.2 ± 0.3	–
T2857W: T2857W mutant of the MLL TAD peptide, highest KIX affinity ({His6-GB1}-GNILPSDIMDFVLKNWPSMQALGESPESY)	4.4 ± 0.1	–
CC[C@H](C)[C@H](NC(=O)[C@H](CC(N)=O)NC(=O)CN)C(=O)N[C@@H](CC(C)C)C(=O)N1CCC[C@H]1C(=O)N[C@@H](CO)C(=O)N[C@@H](CC(=O)O)C(=O)N[C@@H](CC(C)C)C(=O)N[C@@H](CCSC)C(=O)N[C@@H](CC(=O)O)C(=O)N[C@@H](Cc1ccccc1)C(=O)N[C@H](C(=O)N[C@@H](CC(C)C)C(=O)N[C@@H](CCCCN)C(=O)N[C@@H](CC(N)=O)C(=O)N[C@H](C(=O)N1CCC[C@H]1C(=O)N[C@@H](CO)C(=O)N[C@@H](CCSC)C(=O)N[C@@H](CCC(N)=O)C(=O)N[C@@H](C)C(=O)N[C@@H](CC(C)C)C(=O)NCC(=O)N[C@@H](CCC(=O)O)C(=O)N[C@@H](CO)C(=O)N1CCC[C@H]1C(=O)N[C@@H](CCC(=O)O)C(=O)N[C@@H](CO)C(=O)N[C@@H](Cc1ccc(O)cc1)C(=O)O)[C@@H](C)O)C(C)C [I2849L] (H-GNILPSDLMDFVLKNTPSMQALGESPESY-OH; N-terminus and C-terminus assumed)	4.6 ± 0.2	N (stoichiometry of binding) [1]: 0.947 ± 0.008
K2855R / T2857L: K2855R/T2857L double mutant of the MLL TAD peptide ({His6-GB1}-GNILPSDIMDFVLRNLPSMQALGESPESY)	1.5 ± 0.2	–
O=C(Nc1ccc(Cl)cc1)c1cc2ccccc2cc1OP(=O)(O)O [KG-501]	–	IC50 ([2]; small molecule inhibitor of the KIX–MLL interaction): 200 ± 10 µM
T2857A: T2857A mutant of the MLL TAD peptide (GNILPSDIMDFVLKNAPSMQALGESPESY; left off: His6, N-terminal, cleaved | GB1 (B1 domain of Streptococcal protein G), N-terminal, cleaved)	4.0 ± 0.2	–
CC[C@H](C)[C@H](NC(=O)[C@H](CC(=O)O)NC(=O)[C@H](CO)NC(=O)[C@@H]1CCCN1C(=O)[C@H](CC(C)C)NC(=O)[C@@H](NC(=O)[C@H](CC(N)=O)NC(=O)CN)[C@@H](C)CC)C(=O)N[C@@H](CCSC)C(=O)N[C@@H](CC(=O)O)C(=O)N[C@@H](Cc1ccccc1)C(=O)N[C@H](C(=O)N[C@@H](CC(C)C)C(=O)N[C@@H](CCCNC(=N)N)C(=O)N[C@@H](CC(N)=O)C(=O)N[C@H](C(=O)N1CCC[C@H]1C(=O)N[C@@H](CO)C(=O)N[C@@H](CCSC)C(=O)N[C@@H](CCC(N)=O)C(=O)N[C@@H](C)C(=O)N[C@@H](CC(C)C)C(=O)NCC(=O)N[C@@H](CCC(=O)O)C(=O)N[C@@H](CO)C(=O)N1CCC[C@H]1C(=O)N[C@@H](CCC(=O)O)C(=O)N[C@@H](CO)C(=O)N[C@@H](Cc1ccc(O)cc1)C(=O)O)[C@@H](C)O)C(C)C [K2855R] (H-GNILPSDIMDFVLRNTPSMQALGESPESY-OH; N-terminus and C-terminus assumed)	5.7 ± 0.4	N (stoichiometry of binding) [1]: 0.94 ± 0.02
CC[C@H](C)[C@H](NC(=O)[C@H](CC(=O)O)NC(=O)[C@H](CO)NC(=O)[C@@H]1CCCN1C(=O)[C@H](CC(C)C)NC(=O)[C@@H](NC(=O)[C@H](CC(N)=O)NC(=O)CN)[C@@H](C)CC)C(=O)N[C@@H](CCSC)C(=O)N[C@@H](CC(C)C)C(=O)N[C@@H](Cc1ccccc1)C(=O)N[C@H](C(=O)N[C@@H](CC(C)C)C(=O)N[C@@H](CCCCN)C(=O)N[C@@H](CC(N)=O)C(=O)N[C@H](C(=O)N1CCC[C@H]1C(=O)N[C@@H](CO)C(=O)N[C@@H](CCSC)C(=O)N[C@@H](CCC(N)=O)C(=O)N[C@@H](C)C(=O)N[C@@H](CC(C)C)C(=O)NCC(=O)N[C@@H](CCC(=O)O)C(=O)N[C@@H](CO)C(=O)N1CCC[C@H]1C(=O)N[C@@H](CCC(=O)O)C(=O)N[C@@H](CO)C(=O)N[C@@H](Cc1ccc(O)cc1)C(=O)O)[C@@H](C)O)C(C)C [D2851L] (H-GNILPSDIMLFVLKNTPSMQALGESPESY-OH; N-terminus and C-terminus assumed)	1.4 ± 0.4	N (stoichiometry of binding) [1]: 1.020 ± 0.006
K2855R / T2857W: K2855R/T2857W double mutant of the MLL TAD peptide ({His6-GB1}-GNILPSDIMDFVLRNWPSMQALGESPESY)	3.86 ± 0.05	–
T2857K: T2857K mutant of the MLL TAD peptide ({His6-GB1}-GNILPSDIMDFVLKNKPSMQALGESPESY)	4.4 ± 0.2	–
CCCc1cc(OC)cc(O)c1C(=O)Oc1c(OC)cc(CCC)c(C(=O)O)c1O [sekikaic acid]	–	IC50 [2, 3]: 34 µM
CCCCCc1c2c(cc(O)c1C(=O)O)OC(=O)c1c(cc(OC)cc1C(=O)CCCC)O2 [lobaric acid]	–	IC50 [2, 3]: 17 µM
T2857Y: T2857Y mutant of the MLL TAD peptide ({His6-GB1}-GNILPSDIMDFVLKNYPSMQALGESPESY)	4.5 ± 0.2	–
T2857R: T2857R mutant of the MLL TAD peptide ({His6-GB1}-GNILPSDIMDFVLKNRPSMQALGESPESY)	4.9 ± 0.3	–
CC[C@H](C)[C@H](NC(=O)[C@H](CC(=O)O)NC(=O)[C@H](CO)NC(=O)[C@@H]1CCCN1C(=O)[C@H](CC(C)C)NC(=O)[C@@H](NC(=O)[C@H](CC(N)=O)NC(=O)CN)[C@@H](C)CC)C(=O)N[C@@H](CCSC)C(=O)N[C@@H](CC(=O)O)C(=O)N[C@@H](Cc1ccccc1)C(=O)N[C@H](C(=O)N[C@@H](CC(C)C)C(=O)N[C@@H](CCCCN)C(=O)N[C@@H](CC(N)=O)C(=O)N[C@H](C(=O)N1CCC[C@H]1C(=O)N[C@@H](CO)C(=O)N[C@@H](CCSC)C(=O)N[C@@H](CCC(N)=O)C(=O)N[C@@H](C)C(=O)N[C@@H](CC(C)C)C(=O)NCC(=O)N[C@@H](CCC(=O)O)C(=O)N[C@@H](CO)C(=O)N1CCC[C@H]1C(=O)N[C@@H](CCC(=O)O)C(=O)N[C@@H](CO)C(=O)N[C@@H](Cc1ccc(O)cc1)C(=O)O)[C@@H](C)CC)C(C)C [T2857I] (H-GNILPSDIMDFVLKNIPSMQALGESPESY-OH; N-terminus and C-terminus assumed)	2.21 ± 0.08	N (stoichiometry of binding) [1]: 1.043 ± 0.003

— article PMC10113271, “Rational peptide design for inhibition of the KIX–MLL interaction” (Scientific Reports, 2023)
